Measured values published in article PMC4580987, “Catalytic site inhibition of insulin-degrading enzyme by a small molecule induces glucose intolerance in mice” (Nature Communications, 2015).
“Also recorded” adds a separate entry of the source.

Experiments:
C57BL/6J mice [1] = assay: Pyruvate tolerance test; assay type: in vivo, mouse; conditions: 50 mg kg^−1 ip, pyruvate 2 g kg^−1
Procedure: Pyruvate tolerance test was performed on 18 h-fasted mice (12 week-old male C57BL/6J mice, n=8 for each group, randomized on blood glucose at the end of the fasting period). […] Fifteen minutes later, blood glucose was measured before and after (up to 120 min) intraperitoneal sodium pyruvate (2 g kg^−1) injection. The AUC of glycaemia versus time were calculated to estimate the total glucose synthesized from pyruvate. Blood glucose levels were determined using an Accu-Check glucometer (Roche Diagnostics). The protocol was approved by the ethical comitee CEEA Nord Pas de Calais (CEEA75).

Stability in rat plasma = assay type: in vitro ADME; conditions: both sexes, 37 °C, read-out: Plasma stability r (t1/2)
Procedure: (§1) Incubations were performed in duplicate in Eppendorf tubes. The plasma (mouse plasma, rat plasma (mixed gender), human (mixed gender, all lithium heparine, from Sera Laboratories International) or cell culture medium (differenciation medium: DMEM (Life Technologies, Ref 41965), 0.4 % gentamicine, 10 % FCS (Lonza, Ref DE14-801F) or proliferation medium: DMEM (Life Technologies, Ref 41965), 0.4 % gentamicine, 2 % horse serum (Gbco, Ref16050) was pre-incubated 5 min at 37 °C before the addition of test compounds to a final concentration of 10 μM (1% DMSO maximum). At the defined time points, 50 μl from each tube were removed to another tube containing 450 μl of cold CH3CN+ internal standard (1 μM). After centrifugation (10 min at 10,000 r.p.m.), supernatants are analysed. The degradation half-life (t1/2) values were calculated as t1/2=0.693/k where k is the first-order degradation rate constant. The degradation rate constant (k) was estimated by one-phase exponential decay nonlinear regression analysis of the degradation time course data using Xlfit software (version 2.1.2 or higher) from IDBS.Ltd.

hIDE = target: T1, hIDE (Homo sapiens, UniProt P14735); assay: In vitro hIDE inhibition of Aβ16–23-based substrate hydrolysis; assay type: biochemical
T1 construct: made in house
T1 sequence (P14735 1-1019): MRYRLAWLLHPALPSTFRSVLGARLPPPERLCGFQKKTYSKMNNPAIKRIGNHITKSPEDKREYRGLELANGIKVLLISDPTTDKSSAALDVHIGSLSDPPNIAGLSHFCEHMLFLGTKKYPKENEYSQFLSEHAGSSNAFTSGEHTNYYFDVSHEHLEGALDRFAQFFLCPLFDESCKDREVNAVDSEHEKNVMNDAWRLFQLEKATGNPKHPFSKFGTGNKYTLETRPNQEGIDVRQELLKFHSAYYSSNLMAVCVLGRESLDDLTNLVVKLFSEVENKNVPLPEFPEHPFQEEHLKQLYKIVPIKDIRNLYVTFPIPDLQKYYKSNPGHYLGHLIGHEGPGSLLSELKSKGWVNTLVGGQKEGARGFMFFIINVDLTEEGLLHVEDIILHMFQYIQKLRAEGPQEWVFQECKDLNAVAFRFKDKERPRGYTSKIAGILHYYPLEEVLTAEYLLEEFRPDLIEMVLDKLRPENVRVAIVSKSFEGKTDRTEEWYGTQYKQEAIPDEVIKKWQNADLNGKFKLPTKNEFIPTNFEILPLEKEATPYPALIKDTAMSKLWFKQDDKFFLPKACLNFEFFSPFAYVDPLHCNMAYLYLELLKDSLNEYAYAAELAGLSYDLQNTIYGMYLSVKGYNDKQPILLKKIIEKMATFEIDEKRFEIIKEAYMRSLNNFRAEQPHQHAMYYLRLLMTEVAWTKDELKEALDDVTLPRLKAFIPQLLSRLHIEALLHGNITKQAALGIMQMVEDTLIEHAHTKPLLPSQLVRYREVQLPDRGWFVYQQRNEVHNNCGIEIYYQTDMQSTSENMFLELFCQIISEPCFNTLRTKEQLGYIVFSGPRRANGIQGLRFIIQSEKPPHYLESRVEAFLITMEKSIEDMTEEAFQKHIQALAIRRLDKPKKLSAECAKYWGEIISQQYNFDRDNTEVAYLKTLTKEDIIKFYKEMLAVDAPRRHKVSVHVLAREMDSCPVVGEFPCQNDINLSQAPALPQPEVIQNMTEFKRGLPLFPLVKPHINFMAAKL
Procedure: In vitro IDE activity was measured with a quenched substrate […]. Human recombinant IDE was cloned and purified as previously described. […] All measurements were carried out as 8-point dose response curves and reported as the average of at least three independent measurements. […] Data analysis was performed using Xlfit v 5.0 and GraphPad Prism v 4.0. Nonlinear curve fitting and statistical analysis was done using built-in functions.

[2] = Stability in mouse plasma; assay type: in vitro ADME; conditions: 37 °C, read-out: Plasma stability m (t1/2)
Procedure: as §1

C57BL/6J mice [3] = assay: Insulin tolerance test (ITT); assay type: in vivo, mouse; conditions: 50 mg kg^−1 ip
Procedure: AUC for ITT were calculated to evaluate insulin sensitivity. Blood glucose levels were determined using an Accu-Check glucometer (Roche Diagnostics). […] The protocol was approved by the ethical comitee CEEA Nord Pas de Calais (CEEA75).

O=C(C[C@@H](Cc1ccc2ccccc2c1)n1cc(CNC(=O)c2ccc(F)cc2)nn1)NO [Compound 1]
hepatic gluconeogenesis in pyruvate tolerance test (C57BL/6J mice [1]): No effect on gluconeogenesis; also recorded: not altered | half-life at 10 μM (Stability in rat plasma): 13.3 h | IC50 (hIDE): 300 nM | half-life at 10 μM [2]: 24 h | serum insulin concentrations during ITT (C57BL/6J mice [3]; 0.75 U kg^−1 insulin, significant at 30 min): slightly increased | glucose lowering effect of insulin during ITT (C57BL/6J mice [3]; 30 and 60 min): Augments insulin action in vivo; also recorded: tended to enhance
